Data as given in US20070004680A1, “Compositions and methods for modulating gated ion channels” (PainCeptor Pharma Corporation, priority 2004, published 2007).

Columns and labels:
[1] = target: T1, ASIC1a (Rattus norvegicus, UniProt P55926); test: whole cell patch clamp electrophysiology, ASIC1a; type: cell-based; settings: 1 μM compound; pH 6.5 and pH 5.0; compared with the corresponding 5-vinyl esters
T1 construct: expressed in transfected cells; host or cells: HEK cells according to b213
T1 sequence (P55926 1-526): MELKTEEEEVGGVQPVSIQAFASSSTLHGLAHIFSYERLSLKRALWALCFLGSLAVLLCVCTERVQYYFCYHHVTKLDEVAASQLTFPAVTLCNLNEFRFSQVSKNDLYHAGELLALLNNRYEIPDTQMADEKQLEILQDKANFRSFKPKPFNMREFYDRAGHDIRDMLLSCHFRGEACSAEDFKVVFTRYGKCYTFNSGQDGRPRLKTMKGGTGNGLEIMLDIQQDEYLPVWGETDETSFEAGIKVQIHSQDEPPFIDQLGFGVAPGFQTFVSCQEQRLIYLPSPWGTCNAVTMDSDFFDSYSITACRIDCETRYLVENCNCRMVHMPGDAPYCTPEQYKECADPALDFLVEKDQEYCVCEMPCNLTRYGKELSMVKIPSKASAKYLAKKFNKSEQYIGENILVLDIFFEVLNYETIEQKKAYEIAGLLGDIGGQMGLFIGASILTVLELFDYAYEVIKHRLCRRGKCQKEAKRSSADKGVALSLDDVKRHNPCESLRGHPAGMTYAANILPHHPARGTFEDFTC
Procedure: (§1) Another example of an in vitro assessment method consists of using mammalian heterologous expression systems, which are known to the skilled in the art, and include a variety of mammalian cell lines such as COS, HEK, e.g., HEK293and/or CHO, cells. Cell lines are transfected with gated ion channel(s) and used to perform electrophysiology as follows:
(§2) All experiments are performed at room temperature (20-25° C.) in voltage clamp using conventional whole cell patch clamp methods (Neher, E., et al. (1978) Pfluegers Arch 375:219-228).
(§3) The amplifier used is the EPC-9 (HEKA-electronics, Lambrect, Germany) run by a Macintosh G3 computer via an ITC-16 interface. Experimental conditions are set with the Pulse-software accompanying the amplifier. Data is low pass filtered and sampled directly to hard-disk at a rate of 3 times the cut-off frequency.
(§4) Pipettes are pulled from borosilicate glass using a horizontal electrode puller (Zeitz-lnstrumente, Augsburg, Germany). The pipette resistances are 2-3 MOhms in the salt solutions used in these experiments. The pipette electrode is a chloridized silver wire, and the reference is a silver chloride pellet electrode (In Vivo Metric, Healdsburg, USA) fixed to the experimental chamber. The electrodes are zeroed with the open pipette in the bath just prior to sealing.
(§5) Coverslips with the cells are transferred to a 15 μl experimental chamber mounted on the stage of an inverted microscope (IMT-2, Olympus) supplied with Nomarski optics. Cells are continuously superfused with extracellular saline at a rate of 2.5 ml/min. After giga-seal formation, the whole cell configuration is attained by suction. The cells are held at a holding voltage of −60 mV and at the start of each experiment the current is continuously measured for 45 s to ensure a stable baseline. Solutions of low pH (<7) are delivered to the chamber through a custom-made gravity-driven flowpipe, the tip of which is placed approximately 50 μm from the cell. Application is triggered when the tubing connected to the flowpipe is compressed by a valve controlled by the Pulse-software. Initially, low pH (in general, pH 6.5) is applied for 1 s every 45 s. The sample interval during application is 550 μs. After stable responses are obtained, the extracellular saline as well as the low-pH solution are switched to solutions containing the compound to be tested. The compound is present until responses of a repeatable amplitude are achieved. Current amplitudes are measured at the peak of the responses, and effect of the compounds is calculated as the amplitude at compound equilibrium divided by the amplitude of the current evoked by the pulse just before the compound was included.
The following salt solutions are used: extracellular solution (mM): NaCl (140), KCl (4), CaCl2 (2), MgCl2 (4), HEPES (10, pH 7.4); intracellular solution (mM): KCl (120), KOH (31), MgCl2 (1.785), […] (10), HEPES (10, pH 7.2). In general, compounds for testing are dissolved in 50% DMSO at 500 fold the highest concentration used.
The cDNA for ASIC1a and ASIC3 can be cloned from rat poly(A)^+ mRNA and put into expression vectors according to Hesselager et al. (J Biol Chem. 279(12):11006-15 2004). All constructs are expressed in CHO-K1 cells (ATCC no. CCL61). CHO-K1 cells are cultured at 37° C. in a humidified atmosphere of 5% CO2 and 95% air and passaged twice every week. The cells are maintained in DMEM (10 mM HEPES, 2 mM glutamax) supplemented with 10% fetal bovine serum and 2 mM L-proline (Life Technologies). […]

[2] = target: T2, ASIC3 (Rattus norvegicus, UniProt O35240); test: whole cell patch clamp electrophysiology, ASIC3; type: cell-based; settings: 1 μM compound; pH 6.5 and pH 5.0; compared with the corresponding 5-vinyl esters
T2 construct: expressed in transfected cells
T2 sequence (O35240 1-533): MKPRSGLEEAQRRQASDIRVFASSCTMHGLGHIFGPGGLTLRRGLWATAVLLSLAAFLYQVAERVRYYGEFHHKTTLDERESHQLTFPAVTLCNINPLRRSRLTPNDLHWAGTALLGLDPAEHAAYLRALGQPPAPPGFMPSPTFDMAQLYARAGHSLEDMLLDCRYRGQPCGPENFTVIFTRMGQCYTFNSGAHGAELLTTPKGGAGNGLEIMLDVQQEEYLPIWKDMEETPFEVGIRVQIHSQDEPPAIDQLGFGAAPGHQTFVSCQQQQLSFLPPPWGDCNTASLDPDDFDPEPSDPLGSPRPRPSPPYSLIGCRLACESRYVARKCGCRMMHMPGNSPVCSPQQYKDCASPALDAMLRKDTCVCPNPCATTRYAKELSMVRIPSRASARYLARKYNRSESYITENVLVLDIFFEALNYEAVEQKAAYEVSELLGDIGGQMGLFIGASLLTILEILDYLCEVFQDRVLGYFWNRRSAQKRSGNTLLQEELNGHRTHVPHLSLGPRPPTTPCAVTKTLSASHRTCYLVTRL
Procedure: as §1, §2, §3, §4
as §5, with “included. […]” for “included.”

[3] = tested on: Male Sprague-Dawley rats; test: Formalin test (flinching behaviour); type: in vivo, rat; settings: 10 mg/kg i.v. 10 min prior to formalin in the hind limb; compared with vehicle; n=8
Procedure: Male Sprague-Dawley rats (body weight, 180-300 g) are housed together in groups of four animals under standard conditions with unrestricted access to food and water. Rats are housed in the room in which the testing procedure is performed to minimize any stress response to novel environmental cues. All experiments are conducted according to the ethical guidelines for investigations of experimental pain in conscious animals (Zimmerman, 1983).
Separate groups of rats are used for the different experiments such that each animal is used on one occasion only. All experiments for a given compound are performed using age matched animals in an attempt to avoid variability between experiments. Prior to initiation of the formalin test, 4 rats are habituated in separate testing cages for 15-20 min. […] On the basis of the response pattern, two distinct phases of nociceptive behavior are observed, characterized by flinching of the affected paw and scored (Blackburn-Munro et al., Eur J Pharmacol. 2002 Jun. 12;445(3):231-8). […]
All data is analysed using Sigmastat 2.03 statistical software (Jandel Scientific GmbH, Germany) and expressed as mean±S.E.M. Two Way Repeated Measures Analysis of Variance (Two Way RM ANOVA) is used to analyse formalin test data and where applicable, this is followed by post-hoc analysis using Bonferroni's t-test to allow comparisons between groups. […]

[4] = target: T3, ASIC1a (Homo sapiens, UniProt P78348); test: FLIPR calcium assay (MES-induced calcium response), ASIC1a expressing HEK293 cells; type: cell-based; settings: HEK293; at 1 μM, HEK cells, FLIPR
T3 construct: host or cells: HEK293
T3 sequence (P78348 1-528): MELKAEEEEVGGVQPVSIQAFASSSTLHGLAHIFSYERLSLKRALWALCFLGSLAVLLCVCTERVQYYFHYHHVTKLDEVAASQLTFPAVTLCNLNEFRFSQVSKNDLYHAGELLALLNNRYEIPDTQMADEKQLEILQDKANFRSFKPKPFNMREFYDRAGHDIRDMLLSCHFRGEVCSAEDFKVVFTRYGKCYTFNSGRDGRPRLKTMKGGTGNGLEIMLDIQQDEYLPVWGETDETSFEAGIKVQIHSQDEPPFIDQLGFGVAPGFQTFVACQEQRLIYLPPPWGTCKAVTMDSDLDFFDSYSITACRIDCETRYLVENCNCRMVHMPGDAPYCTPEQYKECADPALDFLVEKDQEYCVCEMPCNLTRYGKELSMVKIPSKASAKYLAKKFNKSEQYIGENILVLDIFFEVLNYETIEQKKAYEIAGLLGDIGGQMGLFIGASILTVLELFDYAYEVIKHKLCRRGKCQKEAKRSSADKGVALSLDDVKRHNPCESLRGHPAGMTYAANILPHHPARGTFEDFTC
Procedure: ASIC1a expressing HEK293 cells are grown in culture medium (DMEM with 10% FBS), in polystyrene culture flasks ([…]) at 37° C. in a humidified atmosphere of 5% CO2. Confluency of cells should be 80-90% on day of plating. Cells are rinsed with 10 ml of PBS and cells are re-suspended by addition of culture medium and trituration with a 25 ml pipette.
The cells are seeded at a density of approximately 1×10^6 cells/ml (100 μl/well) in black-walled, clear bottom, 96-well plates pre-treated with 10 mg/l poly-D-lysin (75 μl/well for ≧30 min). Plated cells were allowed to proliferate for 24 h before loading with dye.
Fluo-4/AM (1 mg, Molecular Probes) is added 912 μl DMSO. The Fluo-4/AM stock solution (1 mM) is diluted with culture medium to a final concentration of 2 μM.
The culture medium is aspirated from the wells, and 50 μl of the Fluo-4/AM loading solution is added to each well. The cells are incubated at 37° C. for 30 min.
After the loading period, the loading solution is aspirated and the cells are washed twice with 100 μl modified FLIPR medium (145 mM NaCl, 5 mM KCl, 5 mM CaCl2, 1 mM MgCl2, 10 mM HEPES, pH 7.4) to remove extracellular dye. Following the second wash, 100 μl modified FLIPR medium is added to each well and the fluorescence is measured in FLIPR.
Temperature: Room temperature (20-22° C.)
First addition: 50 μl test solution at a rate of 30 μl/sec and a starting height of […]
Second addition: 50 μl MES solution (20 mM, 5 mM final concentration) at a rate of 35 μl/sec and a starting height of 150 μl.
Reading intervals: pre-incubation—10 sec×7 and 3 sec×3 antagonist phase—3 sec×17 and 10 sec×12
Addition plates (compound test plate and MES plate) are placed on the right and left positions in the FLIPR tray, respectively. Cell plates are placed in the middle position and the ASIC1a program is effectuated. FLIPR will then take the appropriate measurements in accordance with the interval settings above. Fluorescence obtained after stimulation is corrected for the mean basal fluorescence (in modified FLIPR medium). […]

| Compound | difference in current between control ASICs and ASICs with compound (ASIC1a) [1] | difference in current between control ASICs and ASICs with compound (ASIC3) [2] | flinching behaviour in Formalin test [3] | inhibition at 1 µM [4] [%] |
| --- | --- | --- | --- | --- |
| CCC1CN2CCC1CC2C(OC(=O)CC(C)(C)C)c1ccnc2ccc(OC)cc12 (stereo not drawn) [3,3-dimethyl-butyric acid (5-ethyl-1-aza-bicyclo[2.2.2]oct-2-yl)-(6-methoxy-quinolin-4-yl)-methyl ester] | larger difference in current | larger difference in current |  |  |
| CCCCC(=O)OC(c1ccnc2ccc(OC)cc12)C1CC2CCN1CC2CC (stereo not drawn) [pentanoic acid (5-ethyl-1-aza-bicyclo[2.2.2]oct-2-yl)-(6-methoxy-quinolin-4-yl)-methyl ester] | larger difference in current | larger difference in current |  |  |
| C=CC1CN2CCC1CC2[C@H](OC(=O)CCC1CCCC1)c1ccnc2ccccc12 (stereo partly drawn) [B] |  |  | attenuated flinching behaviour |  |
| C=CC1CN2CCC1CC2[C@H](OC(=O)CCC1CCCC1)c1ccnc2ccccc12 (stereo partly drawn) [drawing 27] |  |  |  | 30 to 45 |
